Measured values taken from patent US4368267A, “Epoxidation of lower α-olefins” (priority 1980, dated 1983).

Key:
[1] = system: Methylosinus trichosporium OB3b (NRRL B-11,196); test: Methane hydroxylation and alkene epoxidation by washed cell suspensions; type: cell-based; settings: for Propylene Oxide Formed: 3.6 mg cells; for Ability to hydroxylate methane or epoxidize C2 -C4 alkenes: methanol-grown washed cells
Protocol: The pH of the nutrient medium was adjusted to 7.0 by the addition of acid or base and 50 ml aliquots of the nutrient medium was charged into a plurality of 300 ml shake flasks. […] The isolates had been maintained on agar plates under an atmosphere of methane and air having a 1:1 v/v gas ratio which had been transferred every two weeks. The gaseous phase of the inoculated flasks was then replaced with a gas mixture comprised of methane and air having a ratio of 1:1 on a v/v basis. The inoculated flasks were sealed air tight and were incubated on a rotary shaker of orbital radius 2.5 cm at 250 rpm and at 30° C. for two days until the turbidity in the medium had developed.
The cells were harvested by centrifugation at 10,000 ×g at 4° C. for 30 minutes. The cell pellet was washed twice with a 0.15 M phosphate buffer at a pH of 7.0 (containing 0.002 M MgCl2). The washed cells were then suspended in a 0.15 M phosphate buffer at pH 7.0.
[…] The gaseous phase of the vials was removed with vacuum and then was replaced with a gas mixture of alkene and oxygen at a 1:1 v/v ratio. It was then incubated at 30° C. on a rotary shaker at 300 rpm. Samples of product (3 μl) were withdrawn periodically with a microsyringe and the products were analyzed by gas chromatography (ionization flame detector column).

[2] = system: P(40), P(80), S(80) cell fractions of Methylosinus sp. (CRL-15, NRRL B-11,202); test: Oxidation of n-alkanes and n-alkenes by cell fractions; type: biochemical; settings: for Uninhibited rate of oxidation: no inhibitor; for NADH Oxidized / O2 Consumed / Product Formed: substrate 5.0 μmoles; for Rate of Product Formation (substrate to 1,2-epoxide or alcohol) / 100% activity, product formed (storage study) / 100% activity, product formed (pH study) / 100% activity, product formed (temperature study): P(40) particulate fraction; for 100% activity, product formed (storage study): before storage at 0°-4° C.; for 100% activity, product formed (pH study): optimum pH 7.0; for 100% activity, product formed (temperature study): optimum temperature 35° C.
Protocol: Cells were washed twice with 25 mM potassium phosphate buffer, pH 7.0 containing 5 mM MgCl2. Cells were suspended in the same buffer. The cell suspensions at 4° C. were disintegrated by a single passage through a French Pressure cell (15,000 lb./in.^2) and centrifuged at 5000×g. for 15 min. to remove unbroken bacteria. The supernatant solution (crude extract) was then centrifuged at 40,000×g. for 30 min., yielding particulate P(40) and soluble S(40) fractions. The S(40) fraction was subsequently centrifuged at 80,000×g. for 60 min., yielding particulate P(80) and soluble S(80) fractions. The particulate fractions [P(40) and P(80)] were suspended in 25 mM potassium phosphate buffer, pH 7.0, containing 5 mM MgCl2 and homogenized at 4° C.
[…] The reaction mixtures contained in 1.0 ml: 150 mM potassium phosphate buffer, pH 7.0 containing 5 mM MgCl2, 0.6 ml; […] NADH, and cellular fraction.
Reaction mixtures were contained in 10 ml vials at 4° C. Vials were sealed with rubber caps. The gaseous phase in the vials was removed using vacuum and then was replaced with a gas mixture of methane or propylene and oxygen at a 1:1, v/v ratio. Oxidation of other gaseous n-alkanes and n-alkenes was examined as described above. For liquid substrates, 10 μl of substrate was used directly.
The products of epoxidation of n-alkenes and hydroxylation of n-alkanes were assayed by flame ionization gas chromatography using a stainless steel column (12'×1/8") packed with 10% Carbowax 20 M on 80/100 Chromosorb W and Porapak Q column. The column temperature was maintained isothermally at 120° C. The carrier gas flow rate was 30 ml/min. of helium. The various products were identified by retention time comparisons and co-chromatography with authentic standards.
Specific activities were expressed as μ moles of products formed per hour per mg. protein. Concentrations of protein in various fractions were determined by the method of Lowry et al., J. Biol. Chem. 193: 265-275 (1951).

[3] = target: T1, cell-free fractions of Methylococcus capsulatus (CRL M1, NRRL B-11,219) (Methylococcus capsulatus, UniProt G1UBD1+Q603F1+Q607G3); test: Epoxidation and hydroxylation activities in cell-free fractions; type: biochemical
T1 sequence (G1UBD1 33-414): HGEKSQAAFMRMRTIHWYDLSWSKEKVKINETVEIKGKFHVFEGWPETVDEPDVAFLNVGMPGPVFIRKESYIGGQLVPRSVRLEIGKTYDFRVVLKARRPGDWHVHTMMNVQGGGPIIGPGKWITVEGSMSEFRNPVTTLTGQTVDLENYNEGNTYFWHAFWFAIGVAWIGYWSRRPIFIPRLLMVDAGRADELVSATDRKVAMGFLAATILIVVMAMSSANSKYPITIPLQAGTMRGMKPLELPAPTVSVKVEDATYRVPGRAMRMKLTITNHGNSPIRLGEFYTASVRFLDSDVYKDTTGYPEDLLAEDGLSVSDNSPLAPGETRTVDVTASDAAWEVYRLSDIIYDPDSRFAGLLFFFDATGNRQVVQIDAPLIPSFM
T1 sequence (Q607G3 1-247): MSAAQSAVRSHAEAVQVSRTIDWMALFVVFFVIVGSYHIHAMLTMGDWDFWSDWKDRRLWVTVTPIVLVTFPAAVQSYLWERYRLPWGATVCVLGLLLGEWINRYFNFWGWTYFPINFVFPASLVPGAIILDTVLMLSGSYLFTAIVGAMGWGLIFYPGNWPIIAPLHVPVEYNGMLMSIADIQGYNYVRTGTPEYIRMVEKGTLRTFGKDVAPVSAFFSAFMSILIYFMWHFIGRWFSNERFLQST
T1 sequence (Q603F1 1-260): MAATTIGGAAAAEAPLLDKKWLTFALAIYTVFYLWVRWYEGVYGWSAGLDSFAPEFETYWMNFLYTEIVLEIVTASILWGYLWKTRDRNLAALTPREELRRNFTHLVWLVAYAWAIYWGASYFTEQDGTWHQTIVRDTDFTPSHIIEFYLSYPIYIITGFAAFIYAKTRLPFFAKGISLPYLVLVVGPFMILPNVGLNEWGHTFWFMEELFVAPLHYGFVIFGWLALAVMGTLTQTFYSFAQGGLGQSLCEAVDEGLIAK
Protocol: Cells of methane-grown Methylococcus capsulatus (CRL M1, NRRL B-11,219) were obtained by the method of Example 1. […] However, when the cells were disrupted by passing twice through a French pressure cell (1000 Kg. pressure), both activities were found in the crude extract after 10,000×g. centrifugation. All of the activity in the crude extract was collected as a particulate fraction by further centrifugation of the crude extract at 40,000×g. for 90 min. at 4° C.

[4] = system: Methylobacter capsulatus Y (NRRL B-11,201); test: Methane hydroxylation and propylene epoxidation by washed cell suspensions; type: cell-based; settings: for Ability to hydroxylate methane or epoxidize C2 -C4 alkenes: methanol-grown washed cells
[5] = Propylene + Methane + O2 (25:25:50 v/v), 15 minutes
[6] = methane-grown washed cells, 30° C.
[7] = Particulate fraction (10,000 g.-40,000 g.), 1 mg. protein
[8] = Supernatant fraction of 40,000 g., 2.5 mg. protein

SMILES	Ability to hydroxylate methane or epoxidize C2 -C4 alkenes [1]	Uninhibited rate of oxidation ([2]; P(40) fraction)	NADH Oxidized ([2]; P(40) fraction) [µmol]	O2 Consumed ([2]; P(40) fraction) [µmol]	Product Formed ([2]; P(40) fraction) [µmol]	Rate of Product Formation (substrate to 1,2-epoxide or alcohol) ([2]; 30° C.)	100% activity, product formed (storage study) [2]	100% activity, product formed (pH study) [2]	100% activity, product formed (temperature study) [2]	Ability to hydroxylate methane or epoxidize C2 -C4 alkenes [4]	also measured
C [Methane]	did not possess the ability	4.5 μmoles per hr. per mg. of prot	4.8	4.6	4.2	4.8 μmoles/hr/mg of protein	4.8 μmoles per hr. per mg. of prot	4.8 μmoles per hour, per mg protei	5.0 μmoles per hour per mg of prot	did not possess the ability	Propylene Oxide Formed [1, 5]: 0.8 µmol; % Inhibition of propylene epoxidation [1, 5]: 50%; Conversion rate, methane hydroxylation (methane to methanol) [1, 6]: 1.5 μmole/hr/mg protein; Methane-Oxidizing Activity, P(40) ([2]; P(40) fraction, 30° C.): 4.8 μmoles of product formed per h; Propylene Oxide Produced ([2]; P(40) fraction, substrate Propylene + Methane (1:1, v/v)): 1.8 μmoles/hr/mg. protein; Propylene Oxide Produced ([2]; P(40) fraction, substrate methane alone): 0 μmoles/hr/mg. protein; Methane-Oxidizing Activity, P(80) ([2]; P(80) fraction, 30° C.): 4.2 μmoles of product formed per h; Methane-Oxidizing Activity, S(80) ([2]; S(80) fraction, 30° C.): 0 μmoles of product formed per h; Oxidation Rate, Hydroxylation of Methane [3, 7]: 500 μmoles/30 min/assay; Oxidation Rate, Hydroxylation of Methane [3, 8]: 0 μmoles/30 min/assay; Conversion rate, methane hydroxylation [4, 6]: 1.2 μmole/hr/mg protein
C=CC [Propylene]	did not possess the ability	4.1 μmoles per hr. per mg. of prot	5.0	4.8	4.5	4.1 μmoles/hr/mg of protein	4.1 μmoles per hr. per mg. of prot	4.1 μmoles per hour, per mg protei	4.2 μmoles per hour per mg of prot	did not possess the ability	Propylene Oxide Formed ([1]; Propylene + Helium + O2 (25:25:50 v/v), 15 minutes): 1.6 µmol; Conversion rate, propylene to propylene oxide [1, 6]: 3.6 μmole/hr/mg protein; Propylene-Oxidizing Activity, P(40) ([2]; P(40) fraction, 30° C.): 3.8 μmoles of product formed per h; Propylene Oxide Produced ([2]; P(40) fraction, substrate propylene alone): 4.3 μmoles/hr/mg. protein; Propylene-Oxidizing Activity, P(80) ([2]; P(80) fraction, 30° C.): 3.7 μmoles of product formed per h; Propylene-Oxidizing Activity, S(80) ([2]; S(80) fraction, 30° C.): 0 μmoles of product formed per h; Oxidation Rate, Epoxidation of Propylene [3, 7]: 750 μmoles/30 min/assay; Oxidation Rate, Epoxidation of Propylene [3, 8]: 0 μmoles/30 min/assay
